A word on the DC50: it is the midpoint of the concentration-degradation curve. A lower DC50 goes with degradation at low concentration.

Among the data in patent US20240343733A1, “COMPOUNDS FOR TARGETING DEGRADATION OF IRAK4 PROTEINS” (BIOGEN MA INC., priority 2021, published 2024) are DC50 values, retold here.

SMILES strings stand for the structures.

This test has as its target T1, IRAK4 (Homo sapiens, UniProt Q9NWZ3).
T1 construct: 293Tcells expressing HiBiT-tagged IRAK4 were then added into 384-well plates
T1 sequence (Q9NWZ3 1-460): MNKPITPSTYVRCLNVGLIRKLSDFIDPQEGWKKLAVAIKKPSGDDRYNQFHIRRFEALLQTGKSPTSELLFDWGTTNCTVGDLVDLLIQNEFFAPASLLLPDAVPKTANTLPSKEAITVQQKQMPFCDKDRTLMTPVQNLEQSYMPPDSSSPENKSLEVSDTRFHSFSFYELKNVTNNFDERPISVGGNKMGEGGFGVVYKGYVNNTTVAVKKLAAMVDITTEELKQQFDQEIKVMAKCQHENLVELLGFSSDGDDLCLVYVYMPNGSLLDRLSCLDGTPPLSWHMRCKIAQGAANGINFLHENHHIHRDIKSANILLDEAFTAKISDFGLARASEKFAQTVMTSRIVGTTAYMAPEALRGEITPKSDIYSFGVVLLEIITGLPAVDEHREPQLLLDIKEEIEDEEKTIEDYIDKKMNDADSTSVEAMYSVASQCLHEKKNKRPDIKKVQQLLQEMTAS
The test can be described thus: IRAK4 Degradation Assay, HiBiT Method. The test is classed as cell-based. Conditions: 293T cells expressing HiBiT-tagged IRAK4, 6 hours. As for the experimental part: Assay 1. IRAK4 Degradation Assay, HiBiT Method
Selected compounds were tested in an IRAK4 degradation assay using the HiBiT Method.
Phenol red-free Dulbecco's modified Eagle medium (DMEM) and fetal bovine serum (FBS) were purchased from Gibco (Grand Island, NY, USA). The Nano-Glo® HiBiT Lytic Assay System was purchased from Promega (Madison, WI, USA). Cell culture flasks and 384-well microplates were acquired from VWR (Radnor, PA, USA). The 293Tcell line was engineered by knocking-in a HiBiT fusion tag into the C-terminal of the IRAK4 gene in 293T cells (Synthego, Redwood City, CA, USA).
IRAK4 degradation was measured via the quantification of luminescent signals using the Nano-Glo® HiBiT Lytic Assay kit. Test compounds were added to 384-well plates in duplicate using an 11-point half-log dilution series, with the highest dose set at […]. 293Tcells expressing HiBiT-tagged IRAK4 were then added into 384-well plates at a cell density of 10,000 cells per well. The plates were kept at 37° C. with 5% CO2 for 6 hours. Cells that were treated only with DMSO served as the negative control; wells that contained only assay media served as the background control. After the 6-hour incubation, Nano-Glo® HiBiT Lytic Assay reagents were added to the cells. Luminescence was acquired using an EnVision™ Multilabel Reader (PerkinElmer, Santa Clara, CA, USA).
In general terms: With HiBiT, luminescence reflects the tagged protein that the partner subunit can reach.
The compound `CC(C)Oc1cc2nn([C@H]3CC[C@H](CN4CCC(c5ccc(O[C@@H]6CCC(=O)NC6=O)cc5)CC4)CC3)cc2cc1C(=O)Nc1cccn(C2CC2)c1=O` (single isomer, unassigned) [Example 143] showed a DC50 of 10 to 100 nM.
Take `CC(C)Oc1cc2nc(C3CCC(CN4CCC(c5ccc(NC6CCC(=O)NC6=O)cc5F)CC4)CC3)cn2cc1C(=O)Nc1cccc(C(F)(F)F)n1` (stereo not drawn) [Example 1, 2-[4-[[4-[4-[(2,6-dioxo-3-piperidyl)amino]-2-fluoro-phenyl]-1-piperidyl]methyl]cyclohexyl]-7-isopropoxy-N-[6-(trifluoromethyl)-2-pyridyl]imidazo[1,2-a]pyridine-6-carboxamide]: the 50% degradation concentration (DC50) lay in the range of 100 to 500 nM.
Take `CC(C)Oc1cc2nc([C@H]3CC[C@H](CN4CCC(c5ccc(NC6CCC(=O)NC6=O)cc5)CC4)CC3)cn2cc1C(=O)Nc1cccc(C(F)(F)F)n1` (stereo partly drawn) [Example 2, 2-[4-[[4-[4-[(2,6-dioxo-3-piperidyl)amino]phenyl]-1-piperidyl]methyl]cyclohexyl]-7-isopropoxy-N-[6-(trifluoromethyl)-2-pyridyl]imidazo[1,2-a]pyridine-6-carboxamide]: the DC50 lay in the range of 10 to 100 nM.
`CC(C)Oc1cc2nc([C@H]3CC[C@H](CN4CCC(c5cccc6c5n(C)c(=O)n6C5CCC(=O)NC5=O)CC4)CC3)cn2cc1C(=O)Nc1cccc(C(F)(F)F)n1` (stereo partly drawn) [Example 3, 2-[4-[[4-[1-(2,6-dioxo-3-piperidyl)-3-methyl-2-oxo-benzimidazol-4-yl]-1-piperidyl]methyl]cyclohexyl]-7-isopropoxy-N-[6-(trifluoromethyl)-2-pyridyl]imidazo[1,2-a]pyridine-6-carboxamide] yielded a 50% degradation concentration (DC50) of 100 to 500 nM.
With `CC(C)Oc1cc2nc([C@H]3CC[C@H](CN4CCC(c5ccc(C6CCC(=O)NC6=O)cc5)CC4)CC3)cn2cc1C(=O)Nc1cccc(C(F)(F)F)n1` (stereo partly drawn) [Example 4, 2-[4-[[4-[4-(2,6-dioxo-3-piperidyl)phenyl]-1-piperidyl]methyl]cyclohexyl]-7-isopropoxy-N-[6-(trifluoromethyl)-2-pyridyl]imidazo[1,2-a]pyridine-6-carboxamide], the half-maximal degradation concentration (DC50) lay within 500 to 1000 nM.
`CC(C)Oc1cc2nc([C@H]3CC[C@H](CN4CCC(c5ccc6c(c5)n(C)c(=O)n6C5CCC(=O)NC5=O)CC4)CC3)cn2cc1C(=O)Nc1cccc(C(F)(F)F)n1` (stereo partly drawn) [Example 5, 2-[4-[[4-[1-(2,6-dioxo-3-piperidyl)-3-methyl-2-oxo-benzimidazol-5-yl]-1-piperidyl]methyl]cyclohexyl]-7-isopropoxy-N-[6-(trifluoromethyl)-2-pyridyl]imidazo[1,2-a]pyridine-6-carboxamide] came in with a half-maximal degradation concentration (DC50) of 500 to 1000 nM.
In turn, `CC(C)Oc1cc2nc([C@H]3CC[C@H](CN4CCC(c5ccc(C6CCC(=O)NC6=O)cc5F)CC4)CC3)cn2cc1C(=O)Nc1cccc(C(F)(F)F)n1` (stereo partly drawn) [Example 6, 2-[4-[[4-[4-(2,6-dioxo-3-piperidyl)-2-fluoro-phenyl]-1-piperidyl]methyl]cyclohexyl]-7-isopropoxy-N-[6-(trifluoromethyl)-2-pyridyl]imidazo[1,2-a]pyridine-6-carboxamide] came in with a DC50 of 100 to 500 nM.
The figure for `CC(C)Oc1cc2nc([C@H]3CC[C@H](CN(C)C4CCN(c5ccc(NC6CCC(=O)NC6=O)cc5)CC4)CC3)cn2cc1C(=O)Nc1cccc(C(F)(F)F)n1` (stereo partly drawn) [Example 7, 2-[4-[[[1-[4-[(2,6-dioxo-3-piperidyl)amino]phenyl]-4-piperidyl]-methyl-amino]methyl]cyclohexyl]-7-isopropoxy-N-[6-(trifluoromethyl)-2-pyridyl]imidazo[1,2-a]pyridine-6-carboxamide] is 100 to 500 nM; for `CC(C)Oc1cc2nc([C@H]3CC[C@H](CN(C)C4CCN(Cc5ccc(NC6CCC(=O)NC6=O)cc5)CC4)CC3)cn2cc1C(=O)Nc1cccc(C(F)(F)F)n1` (stereo partly drawn) [Example 8, 2-[4-[[[1-[[4-[(2,6-dioxo-3-piperidyl)amino]phenyl]methyl]-4-piperidyl]-methyl-amino]methyl]cyclohexyl]-7-isopropoxy-N-[6-(trifluoromethyl)-2-pyridyl]imidazo[1,2-a]pyridine-6-carboxamide] it is > 1000 nM.
In the case of `CC(C)Oc1cc2nc([C@H]3CC[C@H](CN(C)C4CCN(c5cccc(NC6CCC(=O)NC6=O)c5)CC4)CC3)cn2cc1C(=O)Nc1cccc(C(F)(F)F)n1` (stereo partly drawn) [Example 9, 2-[4-[[[1-[3-[(2,6-dioxo-3-piperidyl)amino]phenyl]-4-piperidyl]-methyl-amino]methyl]cyclohexyl]-7-isopropoxy-N-[6-(trifluoromethyl)-2-pyridyl]imidazo[1,2-a]pyridine-6-carboxamide], the DC50 was in the range of 500 to 1000 nM.
The compound `CC(C)Oc1cc2nc([C@H]3CC[C@H](CN(C)C4CCN(c5ccc6c(c5)n(C)c(=O)n6C5CCC(=O)NC5=O)CC4)CC3)cn2cc1C(=O)Nc1cccc(C(F)(F)F)n1` (stereo partly drawn) [Example 10, 2-[4-[[[1-[1-(2,6-dioxo-3-piperidyl)-3-methyl-2-oxo-benzimidazol-5-yl]-4-piperidyl]-methyl-amino]methyl]cyclohexyl]-7-isopropoxy-N-[6-(trifluoromethyl)-2-pyridyl]imidazo[1,2-a]pyridine-6-carboxamide] returned a DC50 of 10 to 100 nM.
In the case of `CC(C)Oc1cc2nc([C@H]3CC[C@H](CN(C)C4CCN(c5cccc(C6CCC(=O)NC6=O)c5)CC4)CC3)cn2cc1C(=O)Nc1cccc(C(F)(F)F)n1` (stereo partly drawn) [Example 11, 2-[4-[[[1-[3-(2,6-dioxo-3-piperidyl)phenyl]-4-piperidyl]-methyl-amino]methyl]cyclohexyl]-7-isopropoxy-N-[6-(trifluoromethyl)-2-pyridyl]imidazo[1,2-a]pyridine-6-carboxamide], the DC50 is 10 to 100 nM.
The compound `CC(C)Oc1cc2nc([C@H]3CC[C@H](CN4CCC(c5cccc(NC6CCC(=O)NC6=O)c5)CC4)CC3)cn2cc1C(=O)Nc1cccc(C(F)(F)F)n1` (stereo partly drawn) [Example 12, 2-[4-[[4-[3-[(2,6-dioxo-3-piperidyl)amino]phenyl]-1-piperidyl]methyl]cyclohexyl]-7-isopropoxy-N-[6-(trifluoromethyl)-2-pyridyl]imidazo[1,2-a]pyridine-6-carboxamide] gave a half-maximal degradation concentration (DC50) of 100 to 500 nM.
The figure for `CC(C)Oc1cc2nc([C@H]3CC[C@H](CN(C)C4CCN(c5ccc(C6CCC(=O)NC6=O)cc5)CC4)CC3)cn2cc1C(=O)Nc1cccc(C(F)(F)F)n1` (stereo partly drawn) [Example 13, 2-[4-[[[1-[4-(2,6-dioxo-3-piperidyl)phenyl]-4-piperidyl]-methyl-amino]methyl]cyclohexyl]-7-isopropoxy-N-[6-(trifluoromethyl)-2-pyridyl]imidazo[1,2-a]pyridine-6-carboxamide] is 10 to 100 nM.
The figure for `CC(C)Oc1cc2nc([C@H]3CC[C@H](CN(C)C4CCN(Cc5cccc(NC6CCC(=O)NC6=O)c5)CC4)CC3)cn2cc1C(=O)Nc1cccc(C(F)(F)F)n1` (stereo partly drawn) [Example 14, 2-[4-[[[1-[[3-[(2,6-dioxo-3-piperidyl)amino]phenyl]methyl]-4-piperidyl]-methyl-amino]methyl]cyclohexyl]-7-isopropoxy-N-[6-(trifluoromethyl)-2-pyridyl]imidazo[1,2-a]pyridine-6-carboxamide] is 500 to 1000 nM.
The figure for `CC(C)Oc1cc2nc(C3CCC(CN4CCC(c5ccc(C6CCC(=O)NC6=O)cc5)CC4)CC3)cn2cc1C(=O)Nc1cccc(C(F)F)n1` (stereo not drawn) [Example 15, N-[6-(difluoromethyl)-2-pyridyl]-2-[4-[[4-[4-(2,6-dioxo-3-piperidyl)phenyl]-1-piperidyl]methyl]cyclohexyl]-7-isopropoxy-imidazo[1,2-a]pyridine-6-carboxamide] is 10 to 100 nM.
`CC(C)Oc1cc2nc([C@H]3CC[C@H](CN4CCC(c5ccc(NC6CCC(=O)NC6=O)cc5)CC4)CC3)cn2cc1C(=O)Nc1cccc(C(F)F)n1` (stereo partly drawn) [Example 16, N-[6-(difluoromethyl)-2-pyridyl]-2-[4-[[4-[4-[(2,6-dioxo-3-piperidyl)amino]phenyl]-1-piperidyl]methyl]cyclohexyl]-7-isopropoxy-imidazo[1,2-a]pyridine-6-carboxamide] returned a 50% degradation concentration (DC50) of 10 to 100 nM.
For `CC(C)Oc1cc2nc([C@H]3CC[C@H](CN4CCC(c5cccc6c5n(C)c(=O)n6C5CCC(=O)NC5=O)CC4)CC3)cn2cc1C(=O)Nc1cccc(C(F)F)n1` (stereo partly drawn) [Example 17, N-[6-(difluoromethyl)-2-pyridyl]-2-[4-[[4-[1-(2,6-dioxo-3-piperidyl)-3-methyl-2-oxo-benzimidazol-4-yl]-1-piperidyl]methyl]cyclohexyl]-7-isopropoxy-imidazo[1,2-a]pyridine-6-carboxamide], the DC50 is 10 to 100 nM.
